The NIST ThermoML archive (doi:10.1016/j.jct.2017.04.007)
Numbers after ± are expanded uncertainties.

Details: Liquid; for speed of sound: Frequency=3 MHz, Pulse-echo method; for mass density: Vibrating tube method

CCOC(F)(C(F)(F)C(F)(F)C(F)(F)F)C(F)(C(F)(F)F)C(F)(F)F (configuration not stated) [2-trifluoromethyl-3-ethoxydodecafluorohexane]
Details | mass density [kg/m3] | speed of sound [m/s]
293.15 K, 100 kPa | 1630.2 ± 0.7 | 673.7 ± 1.6
293.15 K, 10000 kPa | 1654 ± 0.9 | –
293.15 K, 20000 kPa | 1674.8 ± 1.1 | 781.1 ± 1.7
293.15 K, 30000 kPa | 1693.3 ± 1.3 | –
293.15 K, 40000 kPa | 1709.8 ± 1.6 | 865.8 ± 1.9
293.15 K, 50000 kPa | 1724.9 ± 1.9 | –
293.15 K, 60000 kPa | 1738.8 ± 2.2 | 938.1 ± 2
293.15 K, 70000 kPa | 1751.7 ± 2.5 | –
293.15 K, 80000 kPa | 1763.9 ± 2.9 | 1001.8 ± 2.2
293.15 K, 90000 kPa | 1775.4 ± 3.2 | –
293.15 K, 100000 kPa | 1786.2 ± 3.5 | 1058 ± 2.3
293.15 K, 110000 kPa | 1796.5 ± 3.9 | –
293.15 K, 120000 kPa | 1806.3 ± 4.3 | –
293.15 K, 130000 kPa | 1815.8 ± 4.6 | –
293.15 K, 140000 kPa | 1824.9 ± 5 | –
303.15 K, 100 kPa | 1609.7 ± 0.7 | 643.7 ± 1.5
303.15 K, 10000 kPa | 1635.5 ± 0.9 | –
303.15 K, 20000 kPa | 1657.8 ± 1 | 755.3 ± 1.7
303.15 K, 30000 kPa | 1677.3 ± 1.3 | –
303.15 K, 40000 kPa | 1694.6 ± 1.5 | 842.8 ± 1.9
303.15 K, 50000 kPa | 1710.4 ± 1.8 | –
303.15 K, 60000 kPa | 1724.9 ± 2.2 | 916.9 ± 2
303.15 K, 70000 kPa | 1738.4 ± 2.5 | –
303.15 K, 80000 kPa | 1750.9 ± 2.8 | 981.3 ± 2.1
303.15 K, 90000 kPa | 1762.8 ± 3.1 | –
303.15 K, 100000 kPa | 1773.9 ± 3.5 | 1038.5 ± 2.2
303.15 K, 110000 kPa | 1784.5 ± 3.8 | –
303.15 K, 120000 kPa | 1794.5 ± 4.2 | –
303.15 K, 130000 kPa | 1804.2 ± 4.6 | –
303.15 K, 140000 kPa | 1813.4 ± 4.9 | –
313.15 K, 100 kPa | 1588.6 ± 0.7 | 616.7 ± 1.5
313.15 K, 10000 kPa | 1616.6 ± 0.9 | –
313.15 K, 20000 kPa | 1640.2 ± 1 | 732.2 ± 1.7
313.15 K, 30000 kPa | 1660.7 ± 1.2 | –
313.15 K, 40000 kPa | 1678.9 ± 1.5 | 822 ± 1.8
313.15 K, 50000 kPa | 1695.4 ± 1.8 | –
313.15 K, 60000 kPa | 1710.5 ± 2.1 | 897.4 ± 2
313.15 K, 70000 kPa | 1724.6 ± 2.4 | –
313.15 K, 80000 kPa | 1737.1 ± 2.8 | 963 ± 2.1
313.15 K, 90000 kPa | 1749.7 ± 3.1 | –
313.15 K, 100000 kPa | 1761.2 ± 3.4 | 1021.7 ± 2.2
313.15 K, 110000 kPa | 1772.2 ± 3.8 | –
313.15 K, 120000 kPa | 1782.5 ± 4.1 | –
313.15 K, 130000 kPa | 1792.5 ± 4.5 | –
313.15 K, 140000 kPa | 1802 ± 4.9 | –
323.15 K, 100 kPa | 1567.3 ± 0.7 | 588.4 ± 1.4
323.15 K, 10000 kPa | 1597.6 ± 0.8 | –
323.15 K, 20000 kPa | 1622.7 ± 1 | 709.6 ± 1.6
323.15 K, 30000 kPa | 1644.3 ± 1.2 | –
323.15 K, 40000 kPa | 1663.4 ± 1.5 | 802.1 ± 1.8
323.15 K, 50000 kPa | 1680.6 ± 1.8 | –
323.15 K, 60000 kPa | 1696.4 ± 2.1 | 878.6 ± 1.9
323.15 K, 70000 kPa | 1710.9 ± 2.4 | –
323.15 K, 80000 kPa | 1724.2 ± 2.7 | 945.6 ± 2
323.15 K, 90000 kPa | 1736.8 ± 3 | –
323.15 K, 100000 kPa | 1748.7 ± 3.4 | 1004.9 ± 2.2
323.15 K, 110000 kPa | 1760 ± 3.7 | –
323.15 K, 120000 kPa | 1770.6 ± 4.1 | –
323.15 K, 130000 kPa | 1780.7 ± 4.4 | –
323.15 K, 140000 kPa | 1790.5 ± 4.8 | –
333.15 K, 100 kPa | 1545.6 ± 0.7 | 561.4 ± 1.4
333.15 K, 10000 kPa | 1578.4 ± 0.8 | –
333.15 K, 20000 kPa | 1605.3 ± 1 | 688.4 ± 1.6
333.15 K, 30000 kPa | 1628.1 ± 1.2 | –
333.15 K, 40000 kPa | 1648.2 ± 1.5 | 783.3 ± 1.7
333.15 K, 50000 kPa | 1666.2 ± 1.7 | –
333.15 K, 60000 kPa | 1682.6 ± 2 | 861.5 ± 1.9
333.15 K, 70000 kPa | 1697.7 ± 2.3 | –
333.15 K, 80000 kPa | 1711.6 ± 2.7 | 929.1 ± 2
333.15 K, 90000 kPa | 1724.6 ± 3 | –
333.15 K, 100000 kPa | 1736.9 ± 3.3 | 989.3 ± 2.1
333.15 K, 110000 kPa | 1748.2 ± 3.7 | –
333.15 K, 120000 kPa | 1759.3 ± 4 | –
333.15 K, 130000 kPa | 1769.7 ± 4.4 | –
333.15 K, 140000 kPa | 1779.5 ± 4.7 | –
343.15 K, 100 kPa | 1523.6 ± 0.7 | 534.8 ± 1.3
343.15 K, 10000 kPa | 1559.1 ± 0.8 | –
343.15 K, 20000 kPa | 1587.8 ± 1 | 667.7 ± 1.5
343.15 K, 30000 kPa | 1611.9 ± 1.2 | –
343.15 K, 40000 kPa | 1633 ± 1.4 | 765 ± 1.7
343.15 K, 50000 kPa | 1651.7 ± 1.7 | –
343.15 K, 60000 kPa | 1668.7 ± 2 | 844.9 ± 1.8
343.15 K, 70000 kPa | 1684.2 ± 2.3 | –
343.15 K, 80000 kPa | 1698.6 ± 2.6 | 913.5 ± 2
343.15 K, 90000 kPa | 1712 ± 2.9 | –
343.15 K, 100000 kPa | 1724.4 ± 3.3 | 974 ± 2.1
343.15 K, 110000 kPa | 1736.5 ± 3.6 | –
343.15 K, 120000 kPa | 1747.8 ± 4 | –
343.15 K, 130000 kPa | 1758.4 ± 4.3 | –
343.15 K, 140000 kPa | 1768.6 ± 4.7 | –
353.15 K, 100 kPa | 1501.6 ± 0.7 | 509 ± 1.3
353.15 K, 10000 kPa | 1540 ± 0.8 | –
353.15 K, 20000 kPa | 1570.5 ± 1 | 647.6 ± 1.6
353.15 K, 30000 kPa | 1596 ± 1.2 | –
353.15 K, 40000 kPa | 1618 ± 1.4 | 747.5 ± 1.7
353.15 K, 50000 kPa | 1637.6 ± 1.7 | –
353.15 K, 60000 kPa | 1655.2 ± 2 | 828.9 ± 1.8
353.15 K, 70000 kPa | 1671.3 ± 2.3 | –
353.15 K, 80000 kPa | 1686.2 ± 2.6 | 898.5 ± 2
353.15 K, 90000 kPa | 1700 ± 2.9 | –
353.15 K, 100000 kPa | 1712.9 ± 3.2 | 960.3 ± 2.1
353.15 K, 110000 kPa | 1724.9 ± 3.6 | –
353.15 K, 120000 kPa | 1736.6 ± 3.9 | –
353.15 K, 130000 kPa | 1747.4 ± 4.2 | –
353.15 K, 140000 kPa | 1757.8 ± 4.6 | –
363.15 K, 100 kPa | 1478.1 ± 0.8 | –
363.15 K, 10000 kPa | 1520.4 ± 0.8 | –
363.15 K, 20000 kPa | 1553 ± 0.9 | –
363.15 K, 30000 kPa | 1579.9 ± 1.1 | –
363.15 K, 40000 kPa | 1603 ± 1.4 | –
363.15 K, 50000 kPa | 1623.4 ± 1.6 | –
363.15 K, 60000 kPa | 1641.7 ± 1.9 | –
363.15 K, 70000 kPa | 1658.3 ± 2.2 | –
363.15 K, 80000 kPa | 1673.6 ± 2.5 | –
363.15 K, 90000 kPa | 1687.9 ± 2.8 | –
363.15 K, 100000 kPa | 1701.2 ± 3.2 | –
363.15 K, 110000 kPa | 1713.7 ± 3.5 | –
363.15 K, 120000 kPa | 1725.3 ± 3.8 | –
363.15 K, 130000 kPa | 1736.6 ± 4.2 | –
363.15 K, 140000 kPa | 1747.3 ± 4.5 | –
373.15 K, 100 kPa | 1454.4 ± 0.8 | –
373.15 K, 10000 kPa | 1500.9 ± 0.8 | –
373.15 K, 20000 kPa | 1535.8 ± 0.9 | –
373.15 K, 30000 kPa | 1564.2 ± 1.1 | –
373.15 K, 40000 kPa | 1588.4 ± 1.3 | –
373.15 K, 50000 kPa | 1609.6 ± 1.6 | –
373.15 K, 60000 kPa | 1628.5 ± 1.9 | –
373.15 K, 70000 kPa | 1645.8 ± 2.2 | –
373.15 K, 80000 kPa | 1661.7 ± 2.5 | –
373.15 K, 90000 kPa | 1676.4 ± 2.8 | –
373.15 K, 100000 kPa | 1689.9 ± 3.1 | –
373.15 K, 110000 kPa | 1702.8 ± 3.4 | –
373.15 K, 120000 kPa | 1714.7 ± 3.8 | –
373.15 K, 130000 kPa | 1726.2 ± 4.1 | –
373.15 K, 140000 kPa | 1737.1 ± 4.5 | –
383.15 K, 100 kPa | 1430.4 ± 0.8 | –
383.15 K, 10000 kPa | 1481.2 ± 0.8 | –
383.15 K, 20000 kPa | 1518.4 ± 0.9 | –
383.15 K, 30000 kPa | 1548.4 ± 1.1 | –
383.15 K, 40000 kPa | 1573.8 ± 1.3 | –
383.15 K, 50000 kPa | 1595.9 ± 1.6 | –
383.15 K, 60000 kPa | 1615.5 ± 1.8 | –
383.15 K, 70000 kPa | 1633.3 ± 2.1 | –
383.15 K, 80000 kPa | 1649.6 ± 2.4 | –
383.15 K, 90000 kPa | 1664.6 ± 2.8 | –
383.15 K, 100000 kPa | 1678.5 ± 3.1 | –
383.15 K, 110000 kPa | 1691.6 ± 3.4 | –
383.15 K, 120000 kPa | 1704 ± 3.7 | –
383.15 K, 130000 kPa | 1715.7 ± 4.1 | –
383.15 K, 140000 kPa | 1726.8 ± 4.4 | –
393.15 K, 100 kPa | 1405.6 ± 0.8 | –
393.15 K, 10000 kPa | 1461.3 ± 0.9 | –
393.15 K, 20000 kPa | 1500.9 ± 0.9 | –
393.15 K, 30000 kPa | 1532.5 ± 1.1 | –
393.15 K, 40000 kPa | 1559 ± 1.3 | –
393.15 K, 50000 kPa | 1581.9 ± 1.5 | –
393.15 K, 60000 kPa | 1602.2 ± 1.8 | –
393.15 K, 70000 kPa | 1620.6 ± 2.1 | –
393.15 K, 80000 kPa | 1637.1 ± 2.4 | –
393.15 K, 90000 kPa | 1652.8 ± 2.7 | –
393.15 K, 100000 kPa | 1667.1 ± 3 | –
393.15 K, 110000 kPa | 1680.5 ± 3.3 | –
393.15 K, 120000 kPa | 1693.2 ± 3.7 | –
393.15 K, 130000 kPa | 1705.1 ± 4 | –
393.15 K, 140000 kPa | 1716.3 ± 4.3 | –
